Data from patent US20100120789A1, “Compound” (priority 2005, published 2010).

Assays:
Human 11β-HSD1 [1] = biological target: T1, Human 11β-HSD1 (Homo sapiens, UniProt P28845); test: 11β-HSD1 HTRF assay (human liver microsome fractions, cortisol by HTRF); format: biochemical; details: 10 μM compound; human liver microsomes
Procedure: 11β-HSD1 HTRF Assay Protocol
The 11β-HSD Type 1 assay was carried out at room temperature in 96 well microtitre plates in a total volume of 40 μl. Assay buffer contained 30 mM Tris.HCl, 1 mM EDTA, pH 7.2. Inhibitor compounds were tested at varying concentrations at a final Dimethyl Sulphoxide concentration of 1%. Compounds were usually tested at 10 μM. The substrate mixture contained cortisone, NADPH and glucose-6-phosphate at final concentrations of 1 μM, 180 μM and 1 mM respectively. Assays were started by the addition of 10p1 human liver microsome fractions, 20 mg per ml protein, containing 11β-HSD Type 1, diluted 1 to 40 prior to use. Following mixing microtitre plates were shaken for 30 minutes. Reactions were stopped by the addition of 10 μl 1 mM Glyccheritinnic acid solution. Production of Cortisol was measured by Homogenous Time Resolved Fluorescence using a cortisol assay kit; Cisbio International Cortisol HTRF kit (62CORPEB), following the manufacturer's protocol.

Human 11β-HSD1 [2] = biological target: T1, Human 11β-HSD1; test: 11β-HSD1 HEK assay (whole HEK 293 cells stably transfected with HSD11B1, SPA); format: cell-based; set-up: expressed in transfected cells; host or cells: HEK 293; details: HEK293, read-out: % INHIBITION of Human 11 β-HSD1 at 10 μM (HEK)
Procedure: 11β-HSD1 HEK Assay Protocol (Cell Based Assay)
11β-HSD1 activity is measured in whole HEK 293 cells stably transfected with the HSD11B1 gene. Cells are incubated in 96-well microplates in the presence of tritiated substrate. Enzyme activity is determined by measuring the amount of tritated product by scintillation proximity assay (SPA). Assay plates contain internal high and low controls to allow calculation of percentage inhibition.
2. When the cells are 80% confluent the medium is removed from each well. 100 μl fresh, serum-free, medium containing ^3H-cortisone and test compound in 1% DMSO is added to each well*. Control wells are also dispensed.
3. The plate is incubated at […] for the required time period.
4. 50 μl of media is removed from each well and transferred to a microplate containing 100 μl of a pre-incubated mixture of anti-cortisol antibody and SPA bead. The mixture is incubated with gentle shaking until equilibrium is reached, before transferring to a scintillation counter to establish the enzyme activity in each sample.
10 μl of compound is dispensed into each well of a 96-well microplate in 10% DMSO at 100 μM concentration. 90 μl media containing ^3H-cortisone is added to each well. The compound/media/substrate mixture is then transferred to the assay plate containing the cells.

T1 sequence (P28845 whole entry): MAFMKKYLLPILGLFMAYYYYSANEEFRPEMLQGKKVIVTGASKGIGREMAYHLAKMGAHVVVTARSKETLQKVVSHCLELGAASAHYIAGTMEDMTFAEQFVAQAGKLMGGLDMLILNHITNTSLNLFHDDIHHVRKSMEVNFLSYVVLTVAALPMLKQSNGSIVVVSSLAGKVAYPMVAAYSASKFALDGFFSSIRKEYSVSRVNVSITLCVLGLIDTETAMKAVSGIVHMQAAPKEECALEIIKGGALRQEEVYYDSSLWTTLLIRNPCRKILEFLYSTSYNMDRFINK

Row | Compound | inhibition at 10 µM (Human 11β-HSD1 [1]) | inhibition at 10 µM (Human 11β-HSD1 [2])
1 | CCCc1ccc(S(=O)(=O)NC23CC4CC(CC(C4)C2)C3)cc1 [compound 1341] | 20 to 60% | 20 to 60%
2 | O=S(=O)(NC12CC3CC(CC(C3)C1)C2)c1ccc(-c2ccccc2)cc1 [compound 1344] | 20 to 60% | 20 to 60%
3 | CCCc1ccc(S(=O)(=O)NCC23CC4CC(CC(C4)C2)C3)cc1 [compound 1368] | > 60% | 20 to 60%
4 | Cc1nc2c(NC(=O)C34CC5CC(CC(C5)C3)C4)c(C)ccc2s1 [compound 1372] | 20 to 60% | 20 to 60%
5 | Cc1nc2c(Cl)c(NC(=O)C34CC5CC(CC(C5)C3)C4)ccc2s1 [compound 1373] | 20 to 60% | > 60%
6 | O=C(NCc1cccs1)C12CC3CC(CC(C3)C1)C2 [compound 1374] | > 60% | > 60%
7 | O=C(NCCc1cccs1)C12CC3CC(CC(C3)C1)C2 [compound 1375] | > 60% | > 60%
8 | Cc1nc2cc(NCC(=O)C34CC5CC(CC(C5)C3)C4)ccc2s1 [compound 1487] | > 60% | > 60%
9 | O=S(=O)(Cc1ccc(Cl)cc1)NC12CC3CC(CC(C3)C1)C2 [compound 1499] | 20 to 60% | < 20%
10 | O=S(=O)(Cc1cccc(Cl)c1)NC12CC3CC(CC(C3)C1)C2 [compound 1500] | 20 to 60% | < 20%
11 | O=C(CNc1ccc(Cl)cc1)C12CC3CC(CC(C3)C1)C2 [compound 1535] | > 60% | > 60%
12 | Cc1ccc(SCC(=O)C23CC4CC(CC(C4)C2)C3)cc1 [compound 1537] | > 60% | > 60%
13 | O=C(CSc1cc(Cl)ccc1Cl)C12CC3CC(CC(C3)C1)C2 [compound 1538] | > 60% | > 60%
14 | O=C(CS(=O)(=O)c1ccc(Cl)cc1)C12CC3CC(CC(C3)C1)C2 [compound 1539] | > 60% | 20 to 60%
15 | O=C(NCc1ccccn1)C12CC3CC(CC(C3)C1)C2 [compound 1540] | > 60% | 20 to 60%
16 | O=C(NCCc1ccccn1)C12CC3CC(CC(C3)C1)C2 [compound 1541] | > 60% | > 60%
17 | O=C(NCc1cccnc1)C12CC3CC(CC(C3)C1)C2 [compound 1542] | > 60% | > 60%
18 | O=C(NCCc1cccnc1)C12CC3CC(CC(C3)C1)C2 [compound 1543] | > 60% | < 20%
19 | COc1ccc(NC(=O)C23CC4CC(CC(C4)C2)C3)cn1 [compound 1544] | > 60% | 20 to 60%
20 | Cc1cnc(CNC(=O)C23CC4CC(CC(C4)C2)C3)cn1 [compound 1545] | > 60% | 20 to 60%
21 | Cc1ccc(S(=O)(=O)CC(=O)C23CC4CC(CC(C4)C2)C3)cc1 [compound 1562] | > 60% | > 60%
22 | O=C(C[S+]([O-])c1cc(Cl)ccc1Cl)C12CC3CC(CC(C3)C1)C2 (stereo not drawn) [compound 1563] | > 60% | > 60%

Row | Compound | inhibition at 10 µM (Human 11β-HSD1 [1]) | inhibition at 10 µM (Human 11β-HSD1 [2])
23 | O=C(CC12CC3CC(CC(C3)C1)C2)NCc1cccs1 [compound 1564] | > 60% | > 60%
24 | O=C(CC12CC3CC(CC(C3)C1)C2)NCc1ccccn1 [compound 1565] | > 60% | 20 to 60%
25 | O=C(COc1ccc(-c2ccccc2)cc1)C12CC3CC(CC(C3)C1)C2 [compound 1567] | > 60% | > 60%
26 | COc1ccc(OCC(=O)C23CC4CC(CC(C4)C2)C3)cc1OC [compound 1568] | > 60% | > 60%
27 | CC(=O)Nc1ccc(OCC(=O)C23CC4CC(CC(C4)C2)C3)cc1 [compound 1569] | > 60% | > 60%
28 | O=C(CC12CC3CC(CC(C3)C1)C2)NCCc1cccs1 [compound 1570] | > 60% | > 60%
29 | Cc1nc2c(NC(=O)CC34CC5CC(CC(C5)C3)C4)c(C)ccc2s1 [compound 1572] | > 60% | < 20%
30 | O=S(=O)(NC12CC3CC(CC(C3)C1)C2)c1cccs1 [compound 1573] | > 60% | 
31 | O=S(=O)(NC1C2CC3CC(C2)CC1C3)c1cccs1 (stereo not drawn) [compound 1574] | > 60% | 20 to 60%
32 | O=S(=O)(NCC12CC3CC(CC(C3)C1)C2)c1cccs1 [compound 1575] | > 60% | < 20%
33 | CN(Cc1cccs1)C(=O)C12CC3CC(CC(C3)C1)C2 [compound 1576] | > 60% | 
34 | Cn1cnc(CNC(=O)C23CC4CC(CC(C4)C2)C3)c1 [compound 1577] | > 60% | > 60%
35 | Cn1cccc1CNC(=O)C12CC3CC(CC(C3)C1)C2 [compound 1578] | > 60% | > 60%
36 | O=C(NCc1ccco1)C12CC3CC(CC(C3)C1)C2 [compound 1579] | > 60% | > 60%
37 | O=C(NCCCn1ccnc1)C12CC3CC(CC(C3)C1)C2 [compound 1580] | 20 to 60% | 20 to 60%
38 | O=C(NCCc1c[nH]c2ccccc12)C12CC3CC(CC(C3)C1)C2 [compound 1581] | > 60% | > 60%
39 | CN1CCCC1CCNC(=O)C12CC3CC(CC(C3)C1)C2 (stereo not drawn) [compound 1597] | > 60% | < 20%
40 | Clc1ccc(-c2noc(C34CC5CC(CC(C5)C3)C4)n2)cc1 [compound 1627] | 20 to 60% | 
41 | O=C(NCCc1cccs1)C12CC3CC(CC(O)(C3)C1)C2 [compound 1676] |  | > 60%
42 | c1csc(Cc2noc(C34CC5CC(CC(C5)C3)C4)n2)c1 [compound 1687] |  | 20 to 60%
43 | O=C(NCc1cc2ccccc2s1)C12CC3CC(CC(C3)C1)C2 [compound 1688] |  | < 20%
44 | O=C(NCc1csc2ccccc12)C12CC3CC(CC(C3)C1)C2 [compound 1689] |  | 20 to 60%

Row | Compound | inhibition at 10 µM (Human 11β-HSD1 [1]) | inhibition at 10 µM (Human 11β-HSD1 [2])
45 | O=C(CC12CC3CC(CC(C3)C1)C2)NCc1cc2ccccc2s1 [compound 1690] |  | 20 to 60%
46 | O=C(CC12CC3CC(CC(C3)C1)C2)NCc1csc2ccccc12 [compound 1691] |  | 20 to 60%
47 | O=C(COCc1cccs1)C12CC3CC(CC(C3)C1)C2 [compound 1692] |  | > 60%
48 | CN(Cc1cccs1)C(=O)C1CCCCC1 [compound 1693] |  | > 60%
49 | CN(Cc1cccs1)C(=O)CC(C)(C)C [compound 1694] |  | > 60%
50 | CN(Cc1cccs1)C(=O)C(C)(C)C [compound 1695] |  | < 20%
51 | CN(Cc1cccs1)C(=O)C1(c2ccc(Cl)cc2)CCCC1 [compound 1696] |  | > 60%
52 | CN(Cc1cccs1)C(=O)C1(C)CC1 [compound 1697] |  | < 20%
53 | CN(Cc1cccs1)C(=O)C(C)(c1ccccc1)c1ccccc1 [compound 1698] |  | 20 to 60%
54 | CN(Cc1cccs1)C(=O)C1(C)CCCCC1 [compound 1699] |  | > 60%
55 | CN(Cc1cccs1)C(=O)C12CC3CC(CC(C3)C1)C2 [compound 1700] |  | > 60%
56 | O=C(NCc1cccs1)[C@H]1CC2C=CC1C2 (stereo partly drawn) [compound 1706] |  | 20 to 60%
57 | O=C(NCCc1cccs1)[C@H]1CC2C=CC1C2 (stereo partly drawn) [compound 1707] |  | 20 to 60%
58 | O=C(NCCc1cccs1)[C@@H]1CC2C=CC1C2 (stereo partly drawn) [compound 1708] |  | 20 to 60%
59 | CN(Cc1cccs1)C(=O)[C@H]1CC2C=CC1C2 (stereo partly drawn) [compound 1709] |  | > 60%
60 | CN(Cc1cccs1)C(=O)[C@@H]1CC2C=CC1C2 (stereo partly drawn) [compound 1710] |  | > 60%
61 | O=C(NC12CC3CC(CC(C3)C1)C2)OCc1cccs1 [compound 1711] |  | > 60%
62 | O=C(NC12CC3CC(CC(C3)C1)C2)OCCc1cccs1 [compound 1712] |  | > 60%
63 | O=C(NCc1cccs1)NC12CC3CC(CC(C3)C1)C2 [compound 1713] |  | 20 to 60%
64 | O=C(NCCc1cccs1)NC12CC3CC(CC(C3)C1)C2 [compound 1714] |  | > 60%
65 | O=C(N1CCc2sccc2C1)C12CC3CC(CC(C3)C1)C2 [compound 1721] |  | > 60%
